# Experimental data reported in the NIST ThermoML archive (doi:10.1016/j.jct.2010.01.016).
# Numbers after ± are expanded uncertainties.
# Legend:
# [1] = Liquid; for vapor or sublimation pressure: Closed cell (Static) method; for mass density: 298.15 K, 101.33 kPa, Vibrating tube method
# [2] = excess molar enthalpy (molar enthalpy of mixing); xn = mol fraction of the nth substance listed; conditions: 303.15 K, 101 kPa, Liquid, Calvet calorimetry
SMILES,vapor or sublimation pressure ([1]; 273.15 K),vapor or sublimation pressure ([1]; 283.15 K),vapor or sublimation pressure ([1]; 293.15 K),mass density [1],vapor or sublimation pressure ([1]; 303.15 K),vapor or sublimation pressure ([1]; 313.15 K),vapor or sublimation pressure ([1]; 323.15 K),vapor or sublimation pressure ([1]; 333.15 K),vapor or sublimation pressure ([1]; 343.15 K),vapor or sublimation pressure ([1]; 353.15 K),vapor or sublimation pressure ([1]; 363.15 K),also measured
"CCN(CC)CCCN [N,N-diethylpropane-1,3-diamine]",0.031 ± 0.001 kPa,0.073 ± 0.002 kPa,0.155 ± 0.004 kPa,821.363 ± 0.3 kg/m3,0.31 ± 0.007 kPa,0.586 ± 0.013 kPa,1.053 ± 0.023 kPa,1.809 ± 0.015 kPa,2.987 ± 0.022 kPa,4.759 ± 0.033 kPa,7.346 ± 0.049 kPa,–
"CCN(CC)CCCN [N,N-diethylpropane-1,3-diamine] + C1CCCCC1",–,–,–,–,–,–,–,–,–,–,–,excess molar enthalpy ([2]; x1 = 0.1022): 0.141 ± 0.00574 kcal/mol; excess molar enthalpy ([2]; x1 = 0.2027): 0.209 ± 0.0086 kcal/mol; excess molar enthalpy ([2]; x1 = 0.3028): 0.245 ± 0.01 kcal/mol; excess molar enthalpy ([2]; x1 = 0.3197): 0.247 ± 0.01 kcal/mol; excess molar enthalpy ([2]; x1 = 0.3519): 0.251 ± 0.0103 kcal/mol; excess molar enthalpy ([2]; x1 = 0.3953): 0.255 ± 0.0105 kcal/mol; excess molar enthalpy ([2]; x1 = 0.407): 0.257 ± 0.0105 kcal/mol; excess molar enthalpy ([2]; x1 = 0.4449): 0.257 ± 0.0105 kcal/mol; excess molar enthalpy ([2]; x1 = 0.4943): 0.254 ± 0.0103 kcal/mol; excess molar enthalpy ([2]; x1 = 0.5061): 0.255 ± 0.0103 kcal/mol; excess molar enthalpy ([2]; x1 = 0.5307): 0.248 ± 0.01 kcal/mol; excess molar enthalpy ([2]; x1 = 0.5351): 0.248 ± 0.01 kcal/mol; excess molar enthalpy ([2]; x1 = 0.5595): 0.243 ± 0.0098 kcal/mol; excess molar enthalpy ([2]; x1 = 0.5741): 0.239 ± 0.0098 kcal/mol; excess molar enthalpy ([2]; x1 = 0.6073): 0.228 ± 0.00932 kcal/mol; excess molar enthalpy ([2]; x1 = 0.6523): 0.21 ± 0.0086 kcal/mol; excess molar enthalpy ([2]; x1 = 0.7017): 0.187 ± 0.00765 kcal/mol; excess molar enthalpy ([2]; x1 = 0.7997): 0.131 ± 0.00526 kcal/mol; excess molar enthalpy ([2]; x1 = 0.8696): 0.0837 ± 0.00335 kcal/mol
C1CCCCC1 [cyclohexane],3.726 ± 0.028 kPa,6.352 ± 0.044 kPa,10.36 ± 0.07 kPa,774.1 ± 0.3 kg/m3,16.26 ± 0.11 kPa,24.65 ± 0.16 kPa,36.24 ± 0.23 kPa,51.85 ± 0.33 kPa,72.4 ± 0.46 kPa,98.87 ± 0.63 kPa,132.35 ± 0.84 kPa,–
